Each block holds one compound with its values, some of them ahead of it.
What was measured:
Test in all cases: radiometric filter-binding kinase assay
[1] = molecular target: IKBKB (human) (UniProt O14920)
[2] = molecular target: CHEK1 (human) (UniProt O14757)
[3] = molecular target: EPHB2 (human) (UniProt P29323)
[4] = molecular target: CaMK1 (human) (UniProt Q14012)
[5] = test system: LCK (mouse); conditions: accession and sequence are those of the human protein
[6] = molecular target: CDK2 CCNA2 (human) (UniProt P20248+P24941)
[7] = molecular target: MINK1 (human) (UniProt Q8N4C8)
[8] = molecular target: DYRK3 (human) (UniProt O43781)
[9] = molecular target: MAPK10 (human) (UniProt P53779)
[10] = molecular target: TBK1 (human) (UniProt Q9UHD2)
[11] = test system: PAK2 (human), Q13177 [T402E]
[12] = molecular target: MAP2K1 (human) (UniProt Q02750)
[13] = molecular target: MST4 (human) (UniProt Q9P289)
[14] = molecular target: TTK (human) (UniProt P33981)
[15] = molecular target: MYLK (human) (UniProt Q15746)
[16] = molecular target: NUAK1 (human) (UniProt O60285)
[17] = molecular target: PKN2 (human) (UniProt Q16513)
[18] = molecular target: MAPK8 (human) (UniProt P45983)
[19] = molecular target: EPHA2 (human) (UniProt P29317)
[20] = molecular target: PAK6 (human) (UniProt Q9NQU5)
[21] = molecular target: CSK (human) (UniProt P41240)
[22] = molecular target: SRC (human) (UniProt P12931)
[23] = molecular target: EPHA4 (human) (UniProt P54764)
[24] = molecular target: RPS6KA3 KD1 KD2 (human) (UniProt P51812)
[25] = molecular target: AURKB (human) (UniProt Q96GD4)
[26] = molecular target: CHEK2 (human) (UniProt O96017)
[27] = molecular target: PAK4 (human) (UniProt O96013)
[28] = molecular target: MAP3K11 (human) (UniProt Q16584)
[29] = test system: ROCK2 (rat); conditions: accession and sequence are those of the human protein
[30] = molecular target: EPHB1 (human) (UniProt P54762)
[31] = molecular target: EPHB3 (human) (UniProt P54753)
[32] = molecular target: MAP3K7 TAB1 (human) (UniProt Q15750+O43318)
[33] = molecular target: MARK2 (human) (UniProt Q7KZI7)
[34] = test system: AKT1 (human), P31749 [S473D]
[35] = molecular target: GCK (human) (UniProt Q12851)
GCK (human), sequence (Q12851 whole entry, looked up): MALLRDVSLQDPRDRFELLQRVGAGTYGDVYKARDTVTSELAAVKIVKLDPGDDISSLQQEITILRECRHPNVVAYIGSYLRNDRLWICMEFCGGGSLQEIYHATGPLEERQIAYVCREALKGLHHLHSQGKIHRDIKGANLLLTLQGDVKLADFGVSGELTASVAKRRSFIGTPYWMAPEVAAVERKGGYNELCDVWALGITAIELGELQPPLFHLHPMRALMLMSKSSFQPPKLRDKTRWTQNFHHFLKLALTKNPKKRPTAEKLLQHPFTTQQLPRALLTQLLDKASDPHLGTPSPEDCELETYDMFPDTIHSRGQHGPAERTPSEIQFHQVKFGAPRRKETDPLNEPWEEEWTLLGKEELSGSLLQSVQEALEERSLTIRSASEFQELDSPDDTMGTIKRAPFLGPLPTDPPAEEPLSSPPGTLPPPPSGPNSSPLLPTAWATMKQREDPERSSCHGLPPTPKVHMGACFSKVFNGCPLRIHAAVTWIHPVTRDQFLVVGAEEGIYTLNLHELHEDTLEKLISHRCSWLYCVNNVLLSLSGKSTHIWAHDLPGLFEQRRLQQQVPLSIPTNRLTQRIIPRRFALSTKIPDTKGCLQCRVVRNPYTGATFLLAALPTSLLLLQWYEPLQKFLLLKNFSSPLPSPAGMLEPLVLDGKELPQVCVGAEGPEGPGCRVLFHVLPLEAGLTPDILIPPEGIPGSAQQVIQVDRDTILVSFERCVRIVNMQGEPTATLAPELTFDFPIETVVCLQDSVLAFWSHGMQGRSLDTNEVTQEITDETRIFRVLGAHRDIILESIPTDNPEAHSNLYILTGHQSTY

MAP2K1 (human), sequence (Q02750 whole entry, looked up): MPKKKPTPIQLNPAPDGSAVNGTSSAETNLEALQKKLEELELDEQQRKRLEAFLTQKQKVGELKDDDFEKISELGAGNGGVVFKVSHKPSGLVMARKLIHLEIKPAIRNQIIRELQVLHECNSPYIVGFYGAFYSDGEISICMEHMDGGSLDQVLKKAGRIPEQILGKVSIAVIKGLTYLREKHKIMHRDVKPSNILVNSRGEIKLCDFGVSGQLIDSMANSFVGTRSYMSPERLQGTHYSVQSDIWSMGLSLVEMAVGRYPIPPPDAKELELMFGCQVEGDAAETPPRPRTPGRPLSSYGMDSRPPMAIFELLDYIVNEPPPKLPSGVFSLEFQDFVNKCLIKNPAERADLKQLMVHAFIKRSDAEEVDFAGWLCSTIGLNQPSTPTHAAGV
AURKB (human), sequence (Q96GD4 whole entry, looked up): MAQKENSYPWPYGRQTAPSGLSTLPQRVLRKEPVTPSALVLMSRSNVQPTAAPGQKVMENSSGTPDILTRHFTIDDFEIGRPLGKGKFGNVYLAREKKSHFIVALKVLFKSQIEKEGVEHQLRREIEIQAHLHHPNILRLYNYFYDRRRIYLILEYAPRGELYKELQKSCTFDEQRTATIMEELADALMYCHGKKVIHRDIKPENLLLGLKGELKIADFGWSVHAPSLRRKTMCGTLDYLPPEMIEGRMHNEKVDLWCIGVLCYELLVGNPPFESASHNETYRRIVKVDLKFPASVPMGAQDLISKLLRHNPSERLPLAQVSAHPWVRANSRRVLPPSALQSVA
SRC (human), sequence (P12931 whole entry, looked up): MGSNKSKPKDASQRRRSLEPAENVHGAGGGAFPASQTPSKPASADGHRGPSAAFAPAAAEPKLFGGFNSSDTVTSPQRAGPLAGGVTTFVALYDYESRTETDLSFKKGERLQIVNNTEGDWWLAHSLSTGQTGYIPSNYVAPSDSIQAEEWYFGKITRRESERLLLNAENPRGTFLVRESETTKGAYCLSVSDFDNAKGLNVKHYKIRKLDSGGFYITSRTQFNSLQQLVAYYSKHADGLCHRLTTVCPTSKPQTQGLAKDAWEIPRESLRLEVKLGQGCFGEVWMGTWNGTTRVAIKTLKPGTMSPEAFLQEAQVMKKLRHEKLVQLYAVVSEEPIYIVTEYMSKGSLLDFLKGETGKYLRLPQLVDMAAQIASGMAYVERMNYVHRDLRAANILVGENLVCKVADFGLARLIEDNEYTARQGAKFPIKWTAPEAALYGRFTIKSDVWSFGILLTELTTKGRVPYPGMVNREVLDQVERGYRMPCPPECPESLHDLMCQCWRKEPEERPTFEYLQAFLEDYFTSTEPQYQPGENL
PKN2 (human), sequence (Q16513 whole entry, looked up): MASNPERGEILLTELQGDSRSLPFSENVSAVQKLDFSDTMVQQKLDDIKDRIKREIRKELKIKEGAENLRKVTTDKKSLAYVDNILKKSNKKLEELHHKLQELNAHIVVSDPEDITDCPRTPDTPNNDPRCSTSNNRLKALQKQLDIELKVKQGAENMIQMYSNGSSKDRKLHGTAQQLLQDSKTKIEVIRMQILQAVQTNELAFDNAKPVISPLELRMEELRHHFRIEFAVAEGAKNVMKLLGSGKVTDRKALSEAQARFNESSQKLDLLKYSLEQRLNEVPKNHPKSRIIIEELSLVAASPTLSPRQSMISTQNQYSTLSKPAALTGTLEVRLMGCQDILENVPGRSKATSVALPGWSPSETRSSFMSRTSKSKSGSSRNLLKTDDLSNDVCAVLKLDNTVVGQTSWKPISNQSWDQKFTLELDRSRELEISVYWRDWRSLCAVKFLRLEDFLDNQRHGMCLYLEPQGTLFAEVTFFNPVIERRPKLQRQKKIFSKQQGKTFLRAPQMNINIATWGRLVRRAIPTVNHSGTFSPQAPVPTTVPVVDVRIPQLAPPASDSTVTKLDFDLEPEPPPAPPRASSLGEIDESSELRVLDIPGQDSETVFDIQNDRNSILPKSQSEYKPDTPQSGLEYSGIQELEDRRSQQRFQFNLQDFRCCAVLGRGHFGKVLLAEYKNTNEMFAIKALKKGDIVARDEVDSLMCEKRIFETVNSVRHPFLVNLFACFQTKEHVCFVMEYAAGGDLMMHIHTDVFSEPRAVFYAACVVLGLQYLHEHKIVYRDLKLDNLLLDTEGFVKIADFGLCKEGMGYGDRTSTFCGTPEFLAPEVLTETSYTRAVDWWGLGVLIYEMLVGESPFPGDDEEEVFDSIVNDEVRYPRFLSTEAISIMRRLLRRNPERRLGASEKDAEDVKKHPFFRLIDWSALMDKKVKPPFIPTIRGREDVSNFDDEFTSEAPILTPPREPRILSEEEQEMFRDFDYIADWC
PAK2 (human), Q13177 [T402E], sequence (Q13177 whole entry T402E, looked up): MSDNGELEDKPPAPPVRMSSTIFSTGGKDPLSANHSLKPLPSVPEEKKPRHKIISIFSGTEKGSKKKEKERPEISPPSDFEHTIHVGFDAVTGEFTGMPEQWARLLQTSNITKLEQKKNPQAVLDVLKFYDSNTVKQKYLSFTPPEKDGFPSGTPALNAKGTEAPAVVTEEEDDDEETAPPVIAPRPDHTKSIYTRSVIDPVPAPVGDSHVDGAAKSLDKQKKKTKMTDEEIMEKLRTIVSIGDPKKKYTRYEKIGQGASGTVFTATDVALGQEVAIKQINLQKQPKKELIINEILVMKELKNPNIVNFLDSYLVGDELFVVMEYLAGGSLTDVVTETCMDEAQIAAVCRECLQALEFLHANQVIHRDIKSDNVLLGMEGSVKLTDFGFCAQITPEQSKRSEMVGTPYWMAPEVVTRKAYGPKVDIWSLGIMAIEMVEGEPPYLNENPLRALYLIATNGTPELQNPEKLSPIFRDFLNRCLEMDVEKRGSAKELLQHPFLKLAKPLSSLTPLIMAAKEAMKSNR
CHEK1 (human), sequence (O14757 whole entry, looked up): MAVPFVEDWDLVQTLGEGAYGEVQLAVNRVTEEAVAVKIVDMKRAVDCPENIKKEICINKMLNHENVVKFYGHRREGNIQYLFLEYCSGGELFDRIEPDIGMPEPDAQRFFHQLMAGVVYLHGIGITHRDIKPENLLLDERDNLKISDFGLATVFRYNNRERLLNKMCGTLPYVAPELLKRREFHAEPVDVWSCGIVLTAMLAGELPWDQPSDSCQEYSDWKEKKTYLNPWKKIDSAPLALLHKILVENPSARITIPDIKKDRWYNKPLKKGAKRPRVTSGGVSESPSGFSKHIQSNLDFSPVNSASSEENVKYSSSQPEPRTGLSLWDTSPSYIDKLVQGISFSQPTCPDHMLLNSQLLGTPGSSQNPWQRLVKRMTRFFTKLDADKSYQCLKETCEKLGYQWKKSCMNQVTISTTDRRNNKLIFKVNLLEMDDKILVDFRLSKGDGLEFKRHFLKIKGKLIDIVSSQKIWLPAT
PAK4 (human), sequence (O96013 whole entry, looked up): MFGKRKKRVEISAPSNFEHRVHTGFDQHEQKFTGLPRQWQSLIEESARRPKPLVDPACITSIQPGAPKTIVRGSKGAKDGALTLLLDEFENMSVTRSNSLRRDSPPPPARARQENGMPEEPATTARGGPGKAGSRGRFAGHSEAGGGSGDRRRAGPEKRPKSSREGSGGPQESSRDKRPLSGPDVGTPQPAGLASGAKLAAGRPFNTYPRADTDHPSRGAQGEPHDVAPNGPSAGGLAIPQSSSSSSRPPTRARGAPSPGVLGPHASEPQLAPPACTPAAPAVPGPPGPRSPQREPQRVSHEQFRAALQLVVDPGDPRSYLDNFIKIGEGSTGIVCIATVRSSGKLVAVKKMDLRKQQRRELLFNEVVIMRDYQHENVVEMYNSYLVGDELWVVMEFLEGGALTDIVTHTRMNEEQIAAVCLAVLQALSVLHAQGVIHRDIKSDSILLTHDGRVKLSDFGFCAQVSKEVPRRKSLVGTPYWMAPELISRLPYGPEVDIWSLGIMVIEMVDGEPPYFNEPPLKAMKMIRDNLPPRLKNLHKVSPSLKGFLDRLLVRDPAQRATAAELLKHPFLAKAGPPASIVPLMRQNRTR

residual activity ([1]; compound 10.0 µM): 97%
residual activity ([2]; compound 10.0 µM): 107%
residual activity ([3]; compound 10.0 µM): 95%
residual activity ([4]; compound 10.0 µM): 80%
residual activity ([5]; compound 10.0 µM): 81%
residual activity ([6]; compound 10.0 µM): 86%
residual activity ([7]; compound 10.0 µM): 73%
residual activity ([8]; compound 10.0 µM): 97%
residual activity ([9]; compound 10.0 µM): 91%
residual activity ([10]; compound 10.0 µM): 81%
residual activity ([11]; compound 10.0 µM): 92%
residual activity ([12]; compound 10.0 µM): 92%
residual activity ([13]; compound 10.0 µM): 122%
residual activity ([14]; compound 10.0 µM): 93%
residual activity ([15]; compound 10.0 µM): 103%
residual activity ([16]; compound 10.0 µM): 78%
residual activity ([17]; compound 10.0 µM): 86%
residual activity ([18]; compound 10.0 µM): 85%
residual activity ([19]; compound 10.0 µM): 98%
residual activity ([20]; compound 10.0 µM): 68%
residual activity ([21]; compound 10.0 µM): 69%
residual activity ([22]; compound 10.0 µM): 86%
residual activity ([23]; compound 10.0 µM): 69%
residual activity ([24]; compound 10.0 µM): 94%
residual activity ([25]; compound 10.0 µM): 75%
residual activity ([26]; compound 10.0 µM): 89%
residual activity ([27]; compound 10.0 µM): 77%
residual activity ([28]; compound 10.0 µM): 99%
residual activity ([29]; compound 10.0 µM): 76%
residual activity ([30]; compound 10.0 µM): 75%
residual activity ([31]; compound 10.0 µM): 62%
residual activity ([32]; compound 10.0 µM): 127%
residual activity ([33]; compound 10.0 µM): 81%
residual activity ([34]; compound 10.0 µM): 83%
Compound: CC(C)C[C@H](NC(=O)CNC(=O)c1cc(Cl)ccc1Cl)B1OC(=O)CC(CC(=O)O)(C(=O)O)O1 (stereo not given in full)

residual activity ([1]; compound 0.1 µM): 119%
residual activity ([2]; compound 0.1 µM): 106%
residual activity ([3]; compound 0.1 µM): 66%
residual activity ([4]; compound 0.1 µM): 106%
residual activity ([6]; compound 0.1 µM): 96%
residual activity ([7]; compound 0.1 µM): 90%
residual activity ([8]; compound 0.1 µM): 114%
residual activity ([9]; compound 0.1 µM): 116%
residual activity ([10]; compound 0.1 µM): 103%
residual activity ([11]; compound 0.1 µM): 94%
residual activity ([12]; compound 0.1 µM): 97%
residual activity ([13]; compound 0.1 µM): 104%
residual activity ([14]; compound 0.1 µM): 112%
residual activity ([15]; compound 0.1 µM): 97%
residual activity ([16]; compound 0.1 µM): 95%
residual activity ([17]; compound 0.1 µM): 103%
residual activity ([18]; compound 0.1 µM): 97%
residual activity ([19]; compound 0.1 µM): 55%
residual activity ([20]; compound 0.1 µM): 90%
residual activity ([21]; compound 0.1 µM): 74%
residual activity ([23]; compound 0.1 µM): 49%
residual activity ([25]; compound 0.1 µM): 82%
residual activity ([26]; compound 0.1 µM): 112%
residual activity ([27]; compound 0.1 µM): 99%
residual activity ([28]; compound 0.1 µM): 85%
residual activity ([29]; compound 0.1 µM): 111%
residual activity ([30]; compound 0.1 µM): 81%
residual activity ([31]; compound 0.1 µM): 89%
residual activity ([32]; compound 0.1 µM): 115%
residual activity ([33]; compound 0.1 µM): 90%
residual activity ([34]; compound 0.1 µM): 99%
Compound: CN1CCN(CCOc2cc(OC3CCOCC3)c3c(Nc4c(Cl)ccc5c4OCO5)ncnc3c2)CC1

residual activity ([1]; compound 0.1 µM): 96%
residual activity ([1]; compound 1.0 µM): 81%
residual activity ([1]; compound 10.0 µM): 65%
residual activity ([2]; compound 0.1 µM): 100%
residual activity ([2]; compound 1.0 µM): 64%
residual activity ([2]; compound 10.0 µM): 29%
residual activity ([3]; compound 0.1 µM): 90%
residual activity ([3]; compound 1.0 µM): 74%
residual activity ([3]; compound 10.0 µM): 24%
residual activity ([4]; compound 0.1 µM): 107%
residual activity ([4]; compound 1.0 µM): 90%
residual activity ([4]; compound 10.0 µM): 38%
residual activity ([35]; compound 0.1 µM): 7%
residual activity ([35]; compound 1.0 µM): 6%
residual activity ([35]; compound 10.0 µM): 5%
residual activity ([5]; compound 0.1 µM): 105%
residual activity ([5]; compound 1.0 µM): 88%
residual activity ([5]; compound 10.0 µM): 67%
residual activity ([6]; compound 0.1 µM): 97%
residual activity ([6]; compound 1.0 µM): 87%
residual activity ([6]; compound 10.0 µM): 35%
residual activity ([7]; compound 0.1 µM): 58%
residual activity ([7]; compound 1.0 µM): 12%
residual activity ([7]; compound 10.0 µM): 4%
residual activity ([8]; compound 0.1 µM): 97%
residual activity ([8]; compound 1.0 µM): 76%
residual activity ([8]; compound 10.0 µM): 59%
residual activity ([9]; compound 0.1 µM): 97%
residual activity ([9]; compound 10.0 µM): 46%
residual activity ([10]; compound 0.1 µM): 98%
residual activity ([10]; compound 1.0 µM): 91%
residual activity ([10]; compound 10.0 µM): 47%
residual activity ([11]; compound 0.1 µM): 100%
residual activity ([11]; compound 1.0 µM): 93%
residual activity ([11]; compound 10.0 µM): 84%
residual activity ([12]; compound 0.1 µM): 90%
residual activity ([12]; compound 1.0 µM): 86%
residual activity ([12]; compound 10.0 µM): 17%
residual activity ([13]; compound 0.1 µM): 102%
residual activity ([13]; compound 1.0 µM): 75%
residual activity ([13]; compound 10.0 µM): 35%
residual activity ([14]; compound 0.1 µM): 87%
residual activity ([14]; compound 1.0 µM): 55%
residual activity ([14]; compound 10.0 µM): 24%
residual activity ([15]; compound 0.1 µM): 98%
residual activity ([15]; compound 1.0 µM): 53%
residual activity ([15]; compound 10.0 µM): 17%
residual activity ([16]; compound 0.1 µM): 81%
residual activity ([16]; compound 1.0 µM): 24%
residual activity ([16]; compound 10.0 µM): 6%
residual activity ([17]; compound 0.1 µM): 100%
residual activity ([17]; compound 1.0 µM): 76%
residual activity ([17]; compound 10.0 µM): 29%
residual activity ([18]; compound 0.1 µM): 111%
residual activity ([18]; compound 1.0 µM): 69%
residual activity ([18]; compound 10.0 µM): 15%
residual activity ([19]; compound 0.1 µM): 87%
residual activity ([19]; compound 1.0 µM): 78%
residual activity ([19]; compound 10.0 µM): 86%
residual activity ([20]; compound 0.1 µM): 85%
residual activity ([20]; compound 1.0 µM): 70%
residual activity ([20]; compound 10.0 µM): 31%
residual activity ([21]; compound 0.1 µM): 90%
residual activity ([21]; compound 1.0 µM): 82%
residual activity ([21]; compound 10.0 µM): 58%
residual activity ([22]; compound 0.1 µM): 100%
residual activity ([22]; compound 1.0 µM): 89%
residual activity ([22]; compound 10.0 µM): 108%
residual activity ([23]; compound 0.1 µM): 93%
residual activity ([23]; compound 1.0 µM): 89%
residual activity ([23]; compound 10.0 µM): 71%
residual activity ([24]; compound 0.1 µM): 108%
residual activity ([24]; compound 1.0 µM): 84%
residual activity ([24]; compound 10.0 µM): 53%
residual activity ([25]; compound 0.1 µM): 110%
residual activity ([25]; compound 1.0 µM): 96%
residual activity ([25]; compound 10.0 µM): 43%
residual activity ([26]; compound 0.1 µM): 104%
residual activity ([26]; compound 1.0 µM): 37%
residual activity ([26]; compound 10.0 µM): 18%
residual activity ([27]; compound 0.1 µM): 65%
residual activity ([27]; compound 1.0 µM): 18%
residual activity ([27]; compound 10.0 µM): 7%
residual activity ([28]; compound 0.1 µM): 74%
residual activity ([28]; compound 1.0 µM): 19%
residual activity ([28]; compound 10.0 µM): 4%
residual activity ([29]; compound 0.1 µM): 75%
residual activity ([29]; compound 1.0 µM): 31%
residual activity ([29]; compound 10.0 µM): 7%
residual activity ([31]; compound 0.1 µM): 128%
residual activity ([31]; compound 1.0 µM): 113%
residual activity ([31]; compound 10.0 µM): 92%
residual activity ([32]; compound 1.0 µM): 8%
residual activity ([32]; compound 10.0 µM): 2%
residual activity ([33]; compound 0.1 µM): 103%
residual activity ([33]; compound 1.0 µM): 65%
residual activity ([33]; compound 10.0 µM): 28%
residual activity ([34]; compound 0.1 µM): 105%
residual activity ([34]; compound 1.0 µM): 104%
residual activity ([34]; compound 10.0 µM): 108%
Compound: NC(=O)c1cc2c(-c3cccc(-c4ccccc4)c3)cnc(N)c2s1
